Our source for the Kd values is article PMC7283271, “ADP binding by the Culex quinquefasciatus mosquito D7 salivary protein enhances blood feeding on mammals” (Nature Communications, 2020).

Holding throughout (assay type): binding
Test [1] has as its target T1, CxD7L1 (Culex quinquefasciatus, UniProt A0A1S4K3K8). Briefly: crystal structure ([…] Å) and ITC. Also noted: gene D7L1; mature protein.
Target sequence in this assay (A0A1S4K3K8 17-311): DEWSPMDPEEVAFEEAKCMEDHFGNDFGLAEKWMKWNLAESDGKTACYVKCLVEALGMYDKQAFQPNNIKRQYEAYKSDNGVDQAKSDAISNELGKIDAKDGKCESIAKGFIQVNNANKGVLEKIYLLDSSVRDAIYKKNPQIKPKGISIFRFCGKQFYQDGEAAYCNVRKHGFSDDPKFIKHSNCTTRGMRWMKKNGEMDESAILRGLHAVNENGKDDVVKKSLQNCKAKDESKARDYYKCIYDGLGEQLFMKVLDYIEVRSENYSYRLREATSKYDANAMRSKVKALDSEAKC
The target of test [2] is T1, CxD7L1. Nature of the test: ITC. Details: gene D7L1; mature protein, C-terminal 6x-His, HEK293. On the technique in general: In ITC the heat of successive injections is recorded.
Target sequence in this assay (A0A1S4K3K8 17-311 limits assumed): as the sequence (A0A1S4K3K8 17-311) above
For another test, the target named is T2, CxD7L2 (Culex quinquefasciatus, UniProt B0X6Z1).
T2 construct: gene D7L2; full-length mature protein, C-terminal 6x-His, HEK293
Briefly: ITC.

T2 sequence (B0X6Z1 21-313 limits assumed): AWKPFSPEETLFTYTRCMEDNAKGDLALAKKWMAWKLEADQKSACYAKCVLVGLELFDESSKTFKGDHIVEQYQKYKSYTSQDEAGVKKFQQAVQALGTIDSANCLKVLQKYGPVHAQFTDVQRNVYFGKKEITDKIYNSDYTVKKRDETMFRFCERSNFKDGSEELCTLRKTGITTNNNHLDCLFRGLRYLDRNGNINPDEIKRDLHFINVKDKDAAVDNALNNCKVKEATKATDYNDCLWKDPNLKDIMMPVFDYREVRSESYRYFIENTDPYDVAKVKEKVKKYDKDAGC

`Nc1ncnc2c1ncn2[C@@H]1O[C@H](COP(=O)(O)OP(=O)(O)O)[C@@H](O)[C@H]1O` [ADP]: the Kd on CxD7L1 [1] was 32.7 nM. `Nc1ncnc2c1ncn2[C@@H]1O[C@H](CO)[C@@H](O)[C@H]1O` [Adenosine] yielded a Kd on CxD7L1 [2] of 313 nM. At CxD7L2, `CNC[C@H](O)c1ccc(O)c(O)c1` [Epinephrine] showed a Kd of 226 nM.

As usually defined, the Kd is the concentration at which binding is half-saturated. The low end stands for a tighter complex, the high end for a looser complex.
